# Source: patent US20050101542A1, “Combination therapy for controlling appetites” (Regents of the University of California, priority 2002, published 2005)
# How the values were obtained:
# [1] = Subchronic OEA in high-fat-fed obese wild-type and PPARα null mice; type: in vivo, mouse; conditions: 4 weeks; for hypercholesterolemia (serum cholesterol): 5 mg-kg^−1 once daily i.p.
# Experimental: (§1) Subchronic experiments. Male wild-type and PPARα null mice were fed with a very high-fat diet (60 kcal % fat; D12492; Research Diets, NJ). […] The mice were divided into 4 groups (n=7-8 each), and treated them for 4 additional weeks with vehicle (saline/polyethylene glycol/Tween 80, 90/5/5; 1 ml-kg^−1) Or OEA (5 mg-kg^−1, once daily, i.p.). In a separate experiment, obese Zucker rats were treated for 2 weeks with vehicle or OEA (5 mg-kg^−1, once daily, i.p.), while maintaining them on a regular rodent chow (RMH 2500, Prolab). Food intake and body weight were measured daily. At the end of the experiments, the animals were fasted overnight, and tissues and blood samples collected for biochemical analyses.
# (§2) Lipids were extracted from mouse liver and epidydimal adipose tissue (Bligh and Dyer, 1959) and measured triglycerides with a commercial kit (Sigma). Serum lipids and glucose were measured with an automated Synchron LX® system (Beckman-Coulter).
# Cardiomyocyte = experiment: [14C]oleate oxidation to CO2 in cardiomyocytes; type: cell-based, rat; conditions: 30 min incubation
# Description: (§3) This example illustrates the effect of OEA on fat metabolism and methods for studying the same. Oleoylethanolamide (OEA) decreases body weight not only by suppressing appetite, but also by possibly enhancing body fat catabolism. The effects of OEA on fatty acid oxidation in major body-fat burning tissues (soleus muscle, liver, cultured cardiac myocytes and astrocytes) was examined. […] In addition, OEA induces a significant mobilization of triacylglycerol stores from primary white adipose tissue cells. Table 4 details the methods and effects of OEA on fatty acid oxidation in these cells. Structure-activity relationship experiments provide evidence that the effect of OEA on skeletal muscle fatty acid oxidation is specific (FIG. 8).
# human PPARγ = biological target: T1, human PPARγ (Homo sapiens, UniProt P37231); experiment: GAL4 chimeric receptor transactivation assay in HeLa cells, PPARγ; type: cell-based
# T1 construct: expressed in transfected cells; host or cells: HeLa (clonal reporter line HLR, stably transfected with pFA-PPARγ)
# T1 sequence (P37231 238-503 limits assumed): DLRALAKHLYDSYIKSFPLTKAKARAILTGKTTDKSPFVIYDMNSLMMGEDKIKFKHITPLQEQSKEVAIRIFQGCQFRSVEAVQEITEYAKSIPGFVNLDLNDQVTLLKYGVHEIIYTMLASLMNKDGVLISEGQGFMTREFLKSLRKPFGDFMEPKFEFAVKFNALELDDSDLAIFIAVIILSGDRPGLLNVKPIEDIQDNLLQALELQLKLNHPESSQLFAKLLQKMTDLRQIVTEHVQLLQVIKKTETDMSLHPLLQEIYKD
# Experimental: Transactivator plasmids pFA-PPARα, pFA-PPARδ, pFA-PPARγ and pFA-RXR, which encoded for the […] Of hPPARα ? ((499-1404), hPPARδ (412-1320), hPPARγ (610-1434) and hRXR (402-1389) fused to the DNA-binding domain (residues 1-147) Of yeast GAL4 under control of the human cytomegalovirus (CMV) promoter were generated. The plasmids contained a neomycin-resistance gene to provide stable selection with G418 (200 μg-ml^−1; Calbiochem). The HeLa cells were cultured in Dulbecco's-modified Eagles's medium (DMEM) supplemented with fetal bovine serum (10%). The cells were transfected with Fugene 6 (3 μl, Roche) Containing the pFR-luc plasmid (1 μg, Stratagene). Eighteen hours following transfection, the culture media was replaced with supplemented DMEM containing hygromycin (100 μg-ml^−1, Calbiochem). After 4 weeks in culture, the surviving clones were isolated and analyzed by luciferase assay. […] The cells were cultured in supplemented DMEM containing hygromycin and G418. For transactivation assays, cells were seeded in 6-well plates (50,000 cells per well) and incubated for 7 hours in supplemented DMEM containing hygromycin and G418, plus appropriate concentrations of test compounds. Dual-luciferase reporter assay system (Promega) and an MLX Microtiter® plate luminometer (Dynex) were used to determine luciferase activity in cell lysates. […]
# [2] = OEA for 2 weeks in obese Zucker rats: serum lipids, glucose, food intake, body weight; type: in vivo, rat
# Experimental: as §1
# Chronic experiment: In a separate experiment, we treated obese Zucker rats for 2 weeks with vehicle (saline/polyethylene glycol/Tween-80, 90/5/5; 1 ml kg^−1, once daily, i.p.) or OEA (5 mg kg^−1, once daily, i.p.), while maintaining them on a regular rodent chow (RMH 2500, Prolab). We measured food intake and body weight daily. At the end of the experiments, the animals were fasted overnight, and tissues and blood samples collected for biochemical analyses.
# as §2
# Adipocyte = experiment: Lypolysis (glycerol release) in adipocytes; type: cell-based, rat; conditions: 30 min incubation
# Description: as §3
# [3] = Conditioned taste aversion; type: in vivo, rat; conditions: 20 mg per kg i.p.
# Experimental: Conditioned taste aversion. Rats were water-deprived for 24 h and then accustomed to drink from a graded bottle during a 30-min test period for four days. On day five, water was substituted with a 0.1% saccharin solution and, 30 min later, the animals received injections of vehicle, OEA (20 mg per kg) Or lithium chloride (0.4 M, 7.5 ml per kg). During the following two days, water consumption was recorded over 30-min test periods. The animals were then presented with water or saccharin, and drinking measured.
# [4] = Food intake in capsaicin-treated (sensory deafferented) rats, Example 2; type: in vivo, rat; conditions: OEA 10 mg per kg i.p.
# Experimental: FAE were dissolved in dimethylsulphoxide (DMSO) and administered in 70% DMSO in sterile saline (acute treatments) Or 5% Tween 80/5% propylenglycol in sterile saline (subchronic treatments) (1 ml per kg, i.p.). Capsaicin was administered in 10% Tween 80/10% ethanol/80% saline; SR141716A, SR144528, CCK-8 and CP-93129 in 5% Tween 80/5% propylenglycol/90% saline (1 ml per kg, i.p.).
# [5] = Acute feeding experiments in free-feeding mice (C57BL/6J, wild-type, PPARα-null); type: in vivo, mouse
# Experimental: Acute experiments. Drugs or appropriate vehicles (saline, for CCK-8 and d-fenfluramine; dimethylsulfoxide/saline, 70/30, for all other agents; 4 ml-kg^−1; i.p.) were administered at 5:00-5:30 PM to free-feeding mice, which were habituated to the experimental setting.
# [6] = obese wild-type mice, 5 mg-kg^−1 i.p. daily
# [7] = OEA 5 mg kg−1 i.p. once a day for 2 weeks
structure (smiles),measurement,setting,value
"CCCCCCCC/C=C\CCCCCCCC(=O)NCCO [OEA, Z-2-hydroxyethyl octadec-9-enamide]",hypercholesterolemia (serum cholesterol),[1]; high fat-fed PPARα-null mice,ineffective
same,hypercholesterolemia (serum cholesterol),[1]; high fat-fed wild-type mice,partially corrected
same,cumulative food intake and body-weight gain,"[1]; obese PPARα deficient mice, 5 mg-kg^−1 i.p. daily",no such effect
same,body-weight gain,[1]; [6],suppressed
same,cumulative food intake (normalized for body mass),[1]; [6],significantly reduced
same,Stimulatory effect of 10 μM OEA on [14C]oleate oxidation to CO2,Cardiomyocyte,37 ± 9 (n = 3) %
same,effect on PPARγ,human PPARγ,no effect
same,Serum cholesterol,[2]; [7],66.14 ± 7.06 mg/dL
same,Serum glucose,[2]; [7],221.25 ± 23.80 mg/dL
same,Serum triglycerides,[2]; [7],394.17 ± 49.40 mg/dL
same,food intake and body-weight gain,[2]; OEA 5 mg-kg^−1 once daily for 2 weeks i.p.,significant inhibition
same,Stimulatory effect of 10 μM OEA on lypolysis (glycerol release),Adipocyte,38 ± 16 (n = 3) %
same,conditioned taste aversion,[3],little effect
same,feeding response in capsaicin-treated rats,[4],failed to respond
same,"meal pattern analysis (eating latency, meal size, post-meal interval)",[5]; C57BL/6J mice,essentially identical
same,feeding in wild-type mice,[5]; OEA 10 mg-kg^−1 i.p.,reduces feeding
same,feeding in PPARα-deficient mice,"[5]; OEA 10, Wy-14643 40, d-fenfluramine 4 mg-kg^−1, CCK-8 25 μg-kg^−1, i.p.",absent and not
